Results as given in US11472791B2 (Incyte Corporation, priority 2019, dated 2022).
pIC50: −log10 of the molar value.

Molecular target: CDK2/Cyclin E1 (Homo sapiens (Human), UniProt P24941)
Assay: CDK2/Cyclin E1 HTRF enzyme activity assay
Type: biochemical
Settings: 1 mM ATP
Experimental: Assays are conducted in white 384-well polystyrene plates in a final reaction volume of 8 μL. […] HTRF signals are read after 1 hour at room temperature on a PHERAstar FS plate reader (BMG Labtech). Data is analyzed with IDBS XLFit and GraphPad Prism 5.0 software using a three or four parameter dose response curve to determine IC50 for each compound.

| SMILES | pIC50 |
| --- | --- |
| CN(C)CCCS(=O)(=O)N1CC[C@H](Nc2ncc(C(F)(F)F)c(-c3cnn(CC(C)(C)O)c3)n2)[C@H](F)C1 [Example 205, 1-(4-(2-(((3R,4S)-1-((3-(Dimethylamino)propyl)sulfonyl)-3-fluoropiperidin-4-yl)amino)-5-(trifluoromethyl)pyrimidin-4-yl)-1H-pyrazol-1-yl)-2-methylpropan-2-ol] | > 7.30 |
| CCS(=O)(=O)N1CC[C@H](Nc2ncc(C#N)c(-c3cnn(-c4ccc(CNC)cc4Cl)c3)n2)[C@H](F)C1 [Example 117, 4-(1-(2-Chloro-4-((methylamino)methyl)phenyl)-1H-pyrazol-4-yl)-2-(((3R,4S)-1-(ethylsulfonyl)-3-fluoropiperidin-4-yl)amino)pyrimidine-5-carbonitrile] | > 7.30 |
| Cc1cc(CN2CCN(C)C(=O)C2)ccc1-n1cc(-c2nc(NC3CCN(S(=O)(=O)c4cn(C)cn4)CC3)ncc2Cl)cn1 [Example 248, 4-(4-(4-(5-Chloro-2-((1-((1-methyl-1H-imidazol-4-yl)sulfonyl)piperidin-4-yl)amino)pyrimidin-4-yl)-1H-pyrazol-1-yl)-3-methylbenzyl)-1-methylpiperazin-2-one] | > 7.30 |
| COC(=O)N1CCC[C@@H](NCc2ccc(-n3cc(-c4nc(NC5CCN(S(C)(=O)=O)CC5)ncc4C#N)cn3)c(Cl)c2)C1 [Example 168, Methyl (R)-3-((3-chloro-4-(4-(5-cyano-2-((1-(methylsulfonyl)piperidin-4-yl)amino)pyrimidin-4-yl)-1H-pyrazol-1-yl)benzyl)amino)piperidine-1-carboxylate] | > 7.30 |
| CC(C)(NCc1ccc(-n2cc(-c3nc(NC4CCN(S(C)(=O)=O)CC4)ncc3C#N)cn2)c(Cl)c1)C(N)=O [Example 160, 2-((3-Chloro-4-(4-(5-cyano-2-((1-(methylsulfonyl)piperidin-4-yl)amino)pyrimidin-4-yl)-1H-pyrazol-1-yl)benzyl)amino)-2-methylpropanamide] | > 7.30 |
| Cn1cnc(S(=O)(=O)N2CCC(Nc3ncc(C(F)(F)F)c(-c4cnn(C[C@H]5CCOC5)c4)n3)CC2)c1 [Example 33, (R)—N-(1-((1-Methyl-1H-imidazol-4-yl)sulfonyl)piperidin-4-yl)-4-(1-((tetrahydrofuran-3-yl)methyl)-1H-pyrazol-4-yl)-5-(trifluoromethyl)pyrimidin-2-amine] | > 7.30 |
| Cc1cc(CN2CCN(C)CC2)ccc1-n1cc(-c2nc(NC3CCN(S(=O)(=O)c4ccn(C)n4)CC3)ncc2Cl)cn1 [Example 110, 5-Chloro-N-(1-((1-methyl-1H-pyrazol-3-yl)sulfonyl)piperidin-4-yl)-4-(1-(2-methyl-4-((4-methylpiperazin-1-yl)methyl)phenyl)-1H-pyrazol-4-yl)pyrimidin-2-amine] | > 7.30 |
| CNCc1ccc(-n2cc(-c3nc(N[C@H]4CCN(S(=O)(=O)c5cn(C)cn5)C[C@H]4C)ncc3C#N)cn2)c(C)n1 [Example 272, 2-(((3R,4S)-3-Methyl-1-((1-methyl-1H-imidazol-4-yl)sulfonyl)piperidin-4-yl)amino)-4-(1-(2-methyl-6-((methylamino)methyl)pyridin-3-yl)-1H-pyrazol-4-yl)pyrimidine-5-carbonitrile] | > 7.30 |
| CS(=O)(=O)N1CCC(Nc2ncc(C#N)c(-c3cnn(-c4ccc(CN[C@H]5CCCOC5)cc4Cl)c3)n2)CC1 [Example 196, (S)-4-(1-(2-Chloro-4-(((tetrahydro-2H-pyran-3-yl)amino)methyl)phenyl)-1H-pyrazol-4-yl)-2-((1-(methylsulfonyl)piperidin-4-yl)amino)pyrimidine-5-carbonitrile] | > 7.30 |
| CN1CCN(Cc2ccc(-n3cc(-c4nc(NC5CCN(S(=O)(=O)C6CC6)CC5)ncc4C#N)cn3)c(Cl)c2)CC1 [Example 259, 4-(1-(2-Chloro-4-((4-methylpiperazin-1-yl)methyl)phenyl)-1H-pyrazol-4-yl)-2-((1-(cyclopropylsulfonyl)piperidin-4-yl)amino)pyrimidine-5-carbonitrile] | > 7.30 |
| CN1CCN(CCCS(=O)(=O)N2CC[C@H](Nc3ncc(C(F)(F)F)c(-c4cnn(CC(C)(C)O)c4)n3)[C@H](F)C2)CC1=O [Example 212, 4-(3-(((3R,4S)-3-Fluoro-4-((4-(1-(2-hydroxy-2-methylpropyl)-1H-pyrazol-4-yl)-5-(trifluoromethyl)pyrimidin-2-yl)amino)piperidin-1-yl)sulfonyl)propyl)-1-methylpiperazin-2-one] | > 7.30 |
| CNCc1ccc(-n2cc(-c3nc(NC4CCN(S(=O)(=O)c5cn(C)cn5)CC4)ncc3Cl)cn2)c(C)n1 [Example 266, 5-Chloro-N-(1-((1-methyl-1H-imidazol-4-yl)sulfonyl)piperidin-4-yl)-4-(1-(2-methyl-6-((methylamino)methyl)pyridin-3-yl)-1H-pyrazol-4-yl)pyrimidin-2-amine] | > 7.30 |
| CNCc1ccc(-n2cc(-c3nc(NC4CCN(S(C)(=O)=O)CC4)ncc3C(F)(F)F)cn2)c(Cl)c1 [Example 29, 4-(1-(2-Chloro-4-((methylamino)methyl)phenyl)-1H-pyrazol-4-yl)-V-(1-(methylsulfonyl)piperidin-4-yl)-5-(trifluoromethyl)pyrimidin-2-amine] | > 7.30 |
| CS(=O)(=O)N1CCC(Nc2ncc(C#N)c(-c3cnn(-c4ccc(CN[C@H]5CC[C@](O)(C(F)(F)F)CC5)cc4Cl)c3)n2)CC1 [Example 177, 4-(1-(2-Chloro-4-((((1s,4s)-4-hydroxy-4-(trifluoromethyl)cyclohexyl)amino)methyl)phenyl)-1H-pyrazol-4-yl)-2-((1-(methylsulfonyl)piperidin-4-yl)amino)pyrimidine-5-carbonitrile] | > 7.30 |
| CC(=O)N1CC[C@@H](NCc2ccc(-n3cc(-c4nc(NC5CCN(S(C)(=O)=O)CC5)ncc4C#N)cn3)c(Cl)c2)C1 [Example 170, (R)-4-(1-(4-(((1-Acetylpyrrolidin-3-yl)amino)methyl)-2-chlorophenyl)-1H-pyrazol-4-yl)-2-((1-(methylsulfonyl)piperidin-4-yl)amino)pyrimidine-5-carbonitrile] | > 7.30 |
| CN1CCN(Cc2ccc(-n3cc(-c4nc(N[C@H]5CCN(S(C)(=O)=O)C[C@H]5F)ncc4C#N)cn3)c(Cl)c2)CC1 [Example 111, 4-(1-(2-Chloro-4-((4-methylpiperazin-1-yl)methyl)phenyl)-1H-pyrazol-4-yl)-2-(((3R,4S)-3-fluoro-1-(methylsulfonyl)piperidin-4-yl)amino)pyrimidine-5-carbonitrile] | > 7.30 |
| CCS(=O)(=O)N1CCC(Nc2ncc(C#N)c(-c3cnn(-c4ccc(CNc5cnn(C)c5)cc4Cl)c3)n2)CC1 [Example 165, 4-(1-(2-Chloro-4-(((1-methyl-1H-pyrazol-4-yl)amino)methyl)phenyl)-1H-pyrazol-4-yl)-2-((1-(ethylsulfonyl)piperidin-4-yl)amino)pyrimidine-5-carbonitrile] | > 7.30 |
| CS(=O)(=O)N1CCC(Nc2ncc(C#N)c(-c3cnn(-c4ccc(CN[C@H]5CC[C@@H](O)C5)cc4Cl)c3)n2)CC1 [Example 188, 4-(1-(2-Chloro-4-((((1S,3R)-3-hydroxycyclopentyl)amino)methyl)phenyl)-1H-pyrazol-4-yl)-2-((1-(methylsulfonyl)piperidin-4-yl)amino)pyrimidine-5-carbonitrile] | > 7.30 |
| [2H]C([2H])([2H])NCc1ccc(-n2cc(-c3nc(N[C@H]4CCN(S(=O)(=O)CC)C[C@H]4F)ncc3C#N)cn2)c(Cl)c1 [Example 144, 4-(1-(2-Chloro-4-(((methyl-d3)amino)methyl)phenyl)-1H-pyrazol-4-yl)-2-(((3R,4S)-1-(ethylsulfonyl)-3-fluoropiperidin-4-yl)amino)pyrimidine-5-carbonitrile] | > 7.30 |
| CO[C@@H]1CCN(CCCS(=O)(=O)N2CCC(Nc3ncc(C(F)(F)F)c(-c4cnn(CC(C)(C)O)c4)n3)CC2)C1 [Example 220, (R)-1-(4-(2-((1-((3-(3-Methoxypyrrolidin-1-yl)propyl)sulfonyl)piperidin-4-yl)amino)-5-(trifluoromethyl)pyrimidin-4-yl)-1H-pyrazol-1-yl)-2-methylpropan-2-ol] | > 7.30 |
| CS(=O)(=O)N1CCC(Nc2ncc(C#N)c(-c3cnn(-c4ccc(CN[C@H]5C[C@@](C)(O)C5)cc4Cl)c3)n2)CC1 [Example 190, 4-(1-(2-Chloro-4-((((1s,3s)-3-hydroxy-3-methylcyclobutyl)amino)methyl)phenyl)-1H-pyrazol-4-yl)-2-((1-(methylsulfonyl)piperidin-4-yl)amino)pyrimidine-5-carbonitrile] | > 7.30 |
| CS(=O)(=O)N1CCC(Nc2ncc(C#N)c(-c3cnn(-c4ccc(CN[C@H]5CCC[C@@H](O)C5)cc4Cl)c3)n2)CC1 [Example 180, 4-(1-(2-Chloro-4-((((1S,3R)-3-hydroxycyclohexyl)amino)methyl)phenyl)-1H-pyrazol-4-yl)-2((1-(methylsulfonyl)piperidin-4-yl)amino)pyrimidine-5-carbonitrile] | > 7.30 |
| [2H]C([2H])([2H])NCc1ccc(-n2cc(-c3nc(N[C@H]4CCN(S(C)(=O)=O)C[C@H]4F)ncc3C(F)(F)F)cn2)c(C)c1 [Example 132, N-((3R,4S)-3-Fluoro-1-(methylsulfonyl)piperidin-4-yl)-4-(1-(2-methyl-4-(((methyl-d3)amino)methyl)phenyl)-1H-pyrazol-4-yl)-5-(trifluoromethyl)pyrimidin-2-amine] | > 7.30 |
| CS(=O)(=O)CCNCc1ccc(-n2cc(-c3nc(NC4CCN(S(C)(=O)=O)CC4)ncc3C#N)cn2)c(Cl)c1 [Example 200, 4-(1-(2-Chloro-4-(((2-(methylsulfonyl)ethyl)amino)methyl)phenyl)-1H-pyrazol-4-yl)-2-((1-(methylsulfonyl)piperidin-4-yl)amino)pyrimidine-5-carbonitrile] | > 7.30 |
| C[C@]1(N)C[C@@H](n2cc(-c3nc(N[C@H]4CCN(S(=O)(=O)C5CCC5)C[C@H]4F)ncc3C(F)(F)F)cn2)C1 [Example 48, 4-(1-((1s,3r)-3-Amino-3-methylcyclobutyl)-1H-pyrazol-4-yl)-N-((3R,4S)-1-(cyclobutylsulfonyl)-3-fluoropiperidin-4-yl)-5-(trifluoromethyl)pyrimidin-2-amine] | > 7.30 |
